Results on four molecules are retold here after ChEMBL document CHEMBL1687782, “High-resolution crystal structure of the subclass B3 metallo-beta-lactamase BJP-1: rational basis for substrate specificity and interaction with sulfonamides” (Antimicrob Agents Chemother, 2010).

Experiment [1] concerns Fluoribacter gormanii. Nature of the experiment: Activity at Fluoribacter gormanii 1K07 metallo-beta-lactamase FEZ-1.
Experiment [2] deals with Stenotrophomonas maltophilia. Kind of experiment: Ratio of Kcat to Km for Stenotrophomonas maltophilia 1SML metallo-beta-lactamase L1.
The test system of experiment [3] is Stenotrophomonas maltophilia. Kind of experiment: Activity at Stenotrophomonas maltophilia 1SML metallo-beta-lactamase L1.
Experiment [4] concerns Fluoribacter gormanii. Kind of experiment: Ratio of Kcat to Km for Fluoribacter gormanii 1K07 metallo-beta-lactamase FEZ-1.
For experiment [5], the system named is Bradyrhizobium japonicum. Kind of experiment: Activity at Bradyrhizobium japonicum metallo-beta-lactamase BJP-1.
For experiment [6], the system named is Bradyrhizobium japonicum. Nature of the experiment: Ratio of Kcat to Km for Bradyrhizobium japonicum metallo-beta-lactamase BJP-1.

Regarding `CC1(C)S[C@@H]2[C@H](NC(=O)[C@H](C(=O)O)c3ccsc3)C(=O)N2[C@H]1C(=O)O`, the figures for the Km (with Fluoribacter gormanii [1]; in experiment [3]) were greater than 5 mM and 140 µM, respectively. Also, the results for the kcat/Km (in experiment [2]; with Fluoribacter gormanii [4]) were 2.7 ×10⁶ /M/s and 1.3 ×10⁴ /M/s, respectively.

Turning to `C[C@@H](O)[C@H]1C(=O)N2C(C(=O)O)=C(SCCNC=N)C[C@H]12`, the results for the Michaelis-Menten constant (Km) (with Fluoribacter gormanii [1]; in the experiment on Bradyrhizobium japonicum [5]; in experiment [3]) were greater than 1 mM, 260 µM and 90 µM, respectively. In addition, the kcat/Km in experiment [2] is 7.3 ×10⁵ /M/s; in the experiment with Bradyrhizobium japonicum [6] it was 6 ×10⁴ /M/s; in the experiment with Fluoribacter gormanii [4], 2 ×10⁵ /M/s.

With `CCN1CCN(C(=O)N[C@@H](C(=O)N[C@@H]2C(=O)N3[C@@H]2SC(C)(C)[C@@H]3C(=O)O)c2ccccc2)C(=O)C1=O`, the Km with Fluoribacter gormanii [1] is 4.2 mM; with Bradyrhizobium japonicum [5], 700 µM; in experiment [3], 20 µM. Also, the kcat/Km in experiment [2] turned out to be 7 ×10⁶ /M/s; in the experiment with Bradyrhizobium japonicum [6], 6.7 ×10⁴ /M/s; with Fluoribacter gormanii [4] it was 1.2 ×10⁴ /M/s.

In the case of `CC1(C)S[C@@H]2[C@H](NC(=O)[C@H](N)c3ccccc3)C(=O)N2[C@H]1C(=O)O`, the Km is greater than 5 mM in the experiment on Fluoribacter gormanii [1], 670 µM with Bradyrhizobium japonicum [5] and 40 µM in experiment [3]. The figures for the kcat/Km (in experiment [2]; in the experiment on Bradyrhizobium japonicum [6]; in the experiment on Fluoribacter gormanii [4]) were 4.4 ×10⁶ /M/s, 1.9 ×10⁴ /M/s and 1.1 ×10⁴ /M/s, respectively.
